Measured values published in US20220339187A1, “ANTIMICROBIAL PEPTIDE-SELENIUM NANOPARTICLES” (The University of Melbourne, priority 2019, published 2022).

Legend:
E. coli ATCC 25922 [1] = assay: Membrane potential change test (BacLight, DiOC2(3)); assay type: cell-based, Escherichia coli; settings: 6.25 or 12.5 μg/ml (CCCP 5 μM)
Experimental: Membrane potential change was measured using a BacLight Bacterial Membrane Potential Kit (Invitrogen). The bacterial strain methicillin-sensitive S. aureus (MSSA) ATCC 29213, E. faecalis ATCC 29212, E. coli ATCC 25922 were cultured in MHB at 37° C. 50 μL of different concentrations of Se NPs, Se NP-ε-PL or pure ε-PL in PBS solution was added into each well of 96-well microplates. 50 μL MHB with 2.5×10^6 cells/mL bacteria was then added into each well. 50 μL MHB with 2.5×10^6 cells/mL bacteria was added to 50 μL PBS to act as untreated control. Carbonyl cyanide 3-chlorophenylhydrazone (CCCP) was added to untreated control at a final concentration of 5 μM to act as fully depolarized control. 3,3′-Diethyloxacarbocyanine Iodide (DiOC2(3)) was added to all wells at a final concentration of […]. […] The untreated (polarized) and CCCP-treated (fully depolarized) controls were used to determine the percentage of depolarized cells. Two independent experiments were done for this test, and two technical replicates were adopted for each independent experiment.

[2] = tested on: methicillin-sensitive S. aureus ATCC 29213; assay: Resistance development test; assay type: cell-based, Staphylococcus aureus; settings: S. aureus cultured at MBC50 concentration
Experimental: (§1) First, one S. aureus or E. coli colony from an agar plate was inoculated into 20 mL MHB and cultured overnight at 37° C. The bacterial suspensions were diluted to 2.5×10^6 bacteria/mL. […] After every 48 h, CFU assays were performed on these bacteria, and the MBCs were calculated. The change in MBCs over the generations was plotted.

E. coli ATCC 25922 [3] = assay: Resistance development test; assay type: cell-based, Escherichia coli; settings: E. coli cultured at MBC50 concentration; 312 generations tested
Experimental: as §1

| SMILES | depolarisation of cell membrane (E. coli ATCC 25922 [1]) | generations after which resistance started to develop (rise of MBC) [2] [generations] | generations after which resistance started to develop (rise of MBC) (E. coli ATCC 25922 [3]) [generations] |
| --- | --- | --- | --- |
| N#CC(C#N)=NNc1cccc(Cl)c1 [CCCP, Carbonyl cyanide 3-chlorophenylhydrazone] | minimal activity |  |  |
| NC[C@H]1O[C@H](O[C@H]2[C@H](O)[C@@H](O[C@H]3O[C@H](CO)[C@@H](O)[C@H](N)[C@H]3O)[C@H](N)C[C@@H]2N)[C@H](O)[C@@H](O)[C@@H]1O [kanamycin] |  | 44 | 52 |
